Values joined by “and” are separate entries in the source; they are usually repeats but may differ in a detail not shown here. Identical values can stand only once.
Assays:
[1] = test system: cells released from demineralized allogeneic bone chips; assay: Allograft-derived cells cultured with compound and TCP matrix; assay type: cell-based; settings: 500 nM, TCP matrix 5 mg/mL, 8 days
Description: Demineralized allogeneic bone chips were thawed at 37° C. quickly with gentle agitation, washed with Dulbecco's PBS (DPBS) and centrifuged at 600×g for 5 min at room temperature. The material was digested with a collagenase and the mixture was filtered through a 100 µm cell strainer and the remaining bone fragments were rinsed with DPBS. The released cells were centrifuged at 1,200× rpm for 5 min at room temperature, resuspended and plated in 10 mL α-MEM media plus 20% FBS plus 1×Glutmax. After three days at 37° C. and 5% CO2, the TCP matrix (5 mg/mL) was added followed by compound 1 (500 nM) (or other compounds of Formula II, IV or VI) and the cell culture media was replaced every two days with fresh media-containing compound for 8 days. Cells were harvested after 8 days for determination of ALP activity, osteogenic mRNA biomarkers (i.e., VDR and collagen I, and cell proliferation. Cell proliferation increased 2.5-fold. VDR and collagen/mRNA expression increased 4.5-fold and 2.2-fold, respectively. Similar to isolated hMSCs in the presence of matrix, allograft-derived cells also respond to the presence of compounds and matrix to afford osteogenesis. The cells can be used in implantation as described in Examples 19 and 20.

hMSCs = assay: qPCR of target gene mRNA expression in hMSCs; assay type: cell-based, human
Description: qPCR detection of osteogenic markers: Cells were cultured with compound in the presence or absence of matrix as described above, but using 96-well plate format. Total RNA was extracted from cells (as above) using Trizol. cDNA was made using 750 ng of total RNA with Bio-Rad iscript kit and was diluted 20-fold before being used for qPCR. qPCR was conducted under the following conditions: 95° C., 2 min; 95° C., 10 s and 60° C., 45 s for 40 cycles; 60° C. for 71 cycles for melt curve. qPCR results were analyzed by the ΔΔCt method. 18s rRNA was used as an internal standard. This protocol was applied to hMSC and E15 cells.
Runx2 and BMP-2 are osteogenic markers; Axin2, Wnt3a, and Sox 9 are Wnt-inducible gene markers.
The assay for mRNA expression followed the same procedure with hMSCs as described for C2C12 cells (Example 7).

Solubility in water = assay type: physicochemical
[2] = test system: nude, immunodeficient Bg-Nu-XID female mice; assay: Intramuscular osteoinduction: implants in biceps femoris of immunodeficient mice, histology after 8 weeks; assay type: in vivo
Description: Mice were divided into groups according to the experimental design: i) uninduced hMSCs that were treated with vehicle alone (i.e., 0.1% DMSO, final concentration) for 8 days then combined with TCP ceramic matrix, and ii) induced hMSCs that were treated with 3 (500 nM) in the presence of TCP ceramic matrix (5 mg/mL) for 8 days, and iii) TCP ceramic matrix (i.e. no cells) mock cultured for 8 days. The TCP ceramic matrix used was […] granules. […] MEM medium was added to existing PBS (pH 6.5) cell incubations to effect a 500 nM final concentration.
Isolation of Compound-Induced hMSCs and their Cryopreservation (FIG. 5, Steps 4-5). At the end of an 8-day cell culture period, the cells were washed three times with 1 ml PBS (50 mM, pH 7.4), and removed from the 6-well plate by trypsinization. For induced cells, the TCP granules that remained on the plate were retained. After three washes with PBS (50 mM, pH 7.4), cells were centrifuged at 1200× g for 3 min. The cell pellet was recombined with TCP ceramic taken from cell culture and the mixture was suspended in 1 mL freezing medium (MEM essential containing 20% FBS and 5% DMSO). Before cryopreservation of the cell-TCP mixture in liquid nitrogen, a 10 μl aliquot of each sample was taken and used to count the cells, or to confirm ALP functional activity and mRNA biomarker expression (i.e., Osteocalcin, Collagen I) in advance of implantation.
Preparation of Implants for Surgery (FIG. 5, Steps i and ii). On the day of surgery, implants comprised of either i) TCP ceramic matrix, ii) hMSCs (0.5 million) and 5 mg TCP ceramic matrix, or iii) compound-induced hMSCs (0.5 million) and 5 mg TCP ceramic matrix were prepared for transplantation. Frozen cell/ceramic suspensions were thawed and washed three times with PBS (50 mM, pH 7.4). All implants were combined with a bioadhesive just prior to implantation in mice. […]
Surgical Implantation of Compositions of the Invention (FIG. 5, Step iii). […] Mice were monitored throughout surgery and thereafter for maintenance of the surgical plane of anesthesia. […]

[3] = compound 500 nM, matrix 5 mg/mL, 3 days
[4] = implants of hMSCs induced 8 days with compound (500 nM) and TCP ceramic matrix, intramuscular, mice, 8 weeks

With `CC(=O)N1c2ccc(C)cc2[C@H](Nc2ccc(C)cc2)C[C@@H]1C` (relative stereo) [Compound 1, cis-1-acetyl-2,6-dimethyl-N-(p-methylphenyl)-1,2,3,4-tetrahydroquinolin-4-amine] the Cell proliferation increase [1] was 2.5 fold, the “VDR mRNA expression increase” value [1] was 4.5 fold and the collagen/mRNA expression increase [1] was 2.2 fold.
In the case of `CC(C)[C@H](N)C(=O)Oc1ccc(C=CC(=O)C=C(O)C=Cc2ccc(OC(=O)[C@@H](N)C(C)C)cc2)cc1` [Compound 3, (2S,2′S)—O,O′-(3-hydroxy-5-oxohepta-1,3,6-triene-1,7-diyl)bis(4,1-phenylene) bis(2-amino-3-methylbutanoate)], the “Collagen 1 mRNA Fold-Change +/− SD, −matrix” value (hMSCs; 500 nM, 8 days) is reported as 1.5 fold and 1.5 ± 0.2 fold, the “Osteocalcin mRNA Fold-Change +/− SD, −matrix” value (hMSCs; 500 nM, 8 days) is reported as 0.5 ± 0.1 fold and the “VDR mRNA Fold-Change +/− SD, −matrix” value (hMSCs; 500 nM, 8 days) is reported as 5.0 ± 0.5 fold. For the same compound, the “decrease of Sox9 expression” value (hMSCs; 500 nM, matrix 5 mg/mL, 3 days) was 40%, the “decrease of Wnt repressor gene Axin2 expression” value (hMSCs; 500 nM, matrix 5 mg/mL, 3 days) was 80% and the “ALP mRNA Fold-Change +/− SD, +matrix” value (hMSCs; 500 nM, matrix 5 mg/mL, 8 days) was 55 fold and 55.0 ± 5.0 fold. The “Collagen 1 mRNA Fold-Change +/− SD, +matrix” value (hMSCs; 500 nM, matrix 5 mg/mL, 8 days) was 1.8 ± 0.2 fold, the “Osteocalcin mRNA Fold-Change +/− SD, +matrix” value (hMSCs; 500 nM, matrix 5 mg/mL, 8 days) was 5.2 ± 0.5 fold and the “VDR mRNA Fold-Change +/− SD, +matrix” value (hMSCs; 500 nM, matrix 5 mg/mL, 8 days) was 45 fold and 45.0 ± 5.0 fold. For the same compound, the “BMP-2 mRNA fold-changes +/− SD, −matrix” value (hMSCs; compound 500 nM, 3 days) was 2.6 ± 0.2 fold, the “Runx2 mRNA fold-changes +/− SD, −matrix” value (hMSCs; compound 500 nM, 3 days) was 101.3 ± 10.0 fold and the “Sox9 mRNA fold-changes +/− SD, −matrix” value (hMSCs; compound 500 nM, 3 days) was 0.1 ± 0.01 fold. For the same compound, the “Wnt3a mRNA fold-changes +/− SD, −matrix” value (hMSCs; compound 500 nM, 3 days) was 1 ± 0.1 fold, the “Wnt5a mRNA fold-changes +/− SD, −matrix” value (hMSCs; compound 500 nM, 3 days) was 1 ± 0.1 fold and the “Axin2 mRNA fold-changes +/− SD, +matrix” value (hMSCs; [3]) was 0.2 ± 0.02 fold. The “BMP-2 mRNA fold-changes +/− SD, +matrix” value (hMSCs; [3]) was 7.5 fold and 7.5 ± 0.7 fold, the “Runx2 mRNA fold-changes +/− SD, +matrix” value (hMSCs; [3]) was 8.2 fold and 8.2 ± 0.8 fold and the “Sox9 mRNA fold-changes +/− SD, +matrix” value (hMSCs; [3]) was 0.6 ± 0.1 fold. The “Wnt3a mRNA fold-changes +/− SD, +matrix” value (hMSCs; [3]) was 82.4 fold and 82.4 ± 8.0 fold, the “Wnt5a mRNA fold-changes +/− SD, +matrix” value (hMSCs; [3]) was 6.3 fold and 6.3 ± 0.6 fold and the solubility in water (Solubility in water) was “greater than 10 mg/mL”. The “osteoid score (0-4), median and 75th percentile, versus non-induced hMSCs on TCP matrix or TCP matrix alone” value ([2]; blinded observers, H&E sections, 8 weeks post-implantation) was “significantly (p<0.005) higher”, the “osteoid in the ROI relative to implants comprised of TCP alone (densitometry)” value [2, 4] was 2.1 fold and the “osteoid in the ROI relative to implants of non-induced hMSCs and TCP ceramic matrix (densitometry)” value [2, 4] was 1.3 fold.
